This is an account of results in publication PMC5913603, “Structure–activity relationships of strigolactones via a novel, quantitative in planta bioassay” (Journal of Experimental Botany, 2018).

A short description of this data set: Chemical stability in aqueous solutions, degradation followed by HPLC. The data set is classed as physicochemical. The protocol: The compounds were first dissolved in methanol (30%) or acetonitrile (50%) and then diluted to the final concentrations with water. The time-course of degradation was monitored by HPLC using an Agilent Technologies HPLC chromatograph 1200 Series equipped with a photo-diode array (PDA) detector, a binary-gradient high-pressure pump, and an automatic sampler. The column used was a LiChroCART® 125-4 LiChrospher® 100 RP-18 (5 μm, Merck Millipore) maintained at 25 °C. The solvents were (A) water + 0.1% formic acid and (B) acetonitrile, and the flow rate was 0.8 ml min^–1. The initial mobile phase, 95% A / 5% B, was held for 3 min and then ramped linearly to 100% B at 23 min and held for 5 min before resetting to the original conditions. The sample injection volume was 10 μl. PDA detection was by absorbance in the 200–600-nm wavelength range. Peak detection was at the optimum wavelength (254 nm) and peak areas were used for quantification. Initial and subsequent measurements of peak area attributable to the tested compound were used to fit exponential half-life curves and to calculate first-order rate constants. Stability data allowed for calculation of the time in hours for half of the tested compound to be hydrolysed (t1/2).
Natural and synthetic SLs are rather sensitive to hydrolysis at pH 7 and are readily decomposed through the cleavage of the D-ring at pH 9.38 ([Vurro et al., 2016]). Therefore, differences in activity among SL analogues may be attributed to their instability in the aqueous medium. In order to address this point, the stability in aqueous solutions of the newly synthesized SL-D-lactams was tested, and compared to the (+)-GR24 standard ([Kannan and Zwanenburg, 2014]; [Halouzka et al., 2018]). Two different conditions were considered, a 30% solution of MeOH in water and a 1:1 solution of acetonitrile in water. As expected, stability in MeOH was highly compromised for all compounds, but to a greater extent for analogues showing both the Michael acceptor function (enol ether bridge) and an unprotected N in the D-lactam ring, as for rac-3, rac-4, rac-5, and rac-7 (Table 1): after a few hours 50% of the compounds were degraded. This was not surprising from a chemical point of view, as the functional group in SL-D-lactams is an aminal, which is more prone to hydrolysis than the acetal of the natural SL skeleton. […] For rac-5, the NH compound in the EGO10 family, the half-life dropped to 2 h.

Where [1] appears, read: aqueous acetonitrile solution in HPLC vials, pH 6.7, 1:1 acetonitrile:water, 21 °C, pH 6.7, extrapolated from plots of peak area versus time, read-out: Half-life (t1/2, h) ACN:Water, 1:1 (converted).
The mark [2] stands for this setting: aqueous methanol solution in HPLC vials, pH 6.7, 30% MeOH in water, 21 °C, pH 6.7, extrapolated from plots of peak area versus time, read-out: Half-life (t1/2, h) 30% MeOH (converted).
[3] abbreviates: aqueous solutions in HPLC vials, summary statement in the discussion, read-out: Half-life time (t1/2), solvent not specified / depending on the solvent.

Read-outs that look alike come from different tables or passages of the source.

Turning to `CC1=CC(C2Cc3c(n(C)c4ccccc34)C2=O)NC1=O` (racemic) [rac-9], the half-life at 200 μg ml^–1 was 2900 h under setting [1], 1100 h under setting [2] and 1000 to 3000 h under setting [3].

`CC1=C[C@H](O/C=C2/C(=O)O[C@H]3c4ccccc4C[C@@H]23)NC1=O` (racemic) [rac-4]: the half-life at 200 μg ml^–1 under setting [1] was 4.4 h and the half-life at 200 μg ml^–1 under setting [2] was around 3 h.

In the case of `CC1=C[C@H](O/C=C2/C(=O)O[C@@H]3c4ccccc4C[C@H]23)NC1=O` (racemic) [rac-3], the half-life at 200 μg ml^–1 under setting [1] is 3.8 h, the half-life at 200 μg ml^–1 under setting [2] was around 3 h and the half-life at 200 μg ml^–1 under setting [3] was below 4 h.
